According to the NIST ThermoML archive (doi:10.1016/j.jct.2015.08.027):
Numbers after ± are expanded uncertainties.

Tests used:
[1] = 101.33 kPa, Liquid, Vibrating tube method
[2] = refractive index (Na D-line) (dimensionless); details: 101.33 kPa, Liquid, Standard Abbe refractometry
[3] = refractive index (Na D-line) (dimensionless); wn = mass fraction of the nth substance listed; details: 81.5 kPa, Liquid, Standard Abbe refractometry

CCCCCCn1cc[n+](C)c1.F[P-](F)(F)(F)(F)F [1-hexyl-3-methylimidazolium hexafluorophosphate]
mass density ([1]; 293.2 K): 1294.91 ± 2.6 kg/m3 | mass density ([1]; 298.2 K): 1290.88 ± 2.6 kg/m3 | mass density ([1]; 303.2 K): 1286.85 ± 2.6 kg/m3 | refractive index ([2]; 293.2 K): 1.4176 ± 0.00053 | refractive index ([2]; 298.2 K): 1.4164 ± 0.00053 | refractive index ([2]; 303.2 K): 1.41515 ± 0.00053

CCCCCCn1cc[n+](C)c1.F[P-](F)(F)(F)(F)F [1-hexyl-3-methylimidazolium hexafluorophosphate] + O
refractive index ([3]; 293.2 K, w2 = 0.0142): 1.4164 ± 0.001 | refractive index ([3]; 293.2 K, w2 = 0.993): 1.3334 ± 0.00077 | refractive index ([3]; 298.2 K, w2 = 0.0161): 1.41525 ± 0.00099 | refractive index ([3]; 298.2 K, w2 = 0.9924): 1.3332 ± 0.0008 | refractive index ([3]; 303.2 K, w2 = 0.0164): 1.4135 ± 0.00098 | refractive index ([3]; 303.2 K, w2 = 0.9914): 1.33345 ± 0.00086

CC(C)=O [acetone]
mass density ([1]; 293.2 K): 790.66 ± 1.6 kg/m3 | mass density ([1]; 298.2 K): 784.4 ± 1.6 kg/m3 | mass density ([1]; 303.2 K): 778.7 ± 1.6 kg/m3 | refractive index ([2]; 293.2 K): 1.3588 ± 0.00051 | refractive index ([2]; 298.2 K): 1.35575 ± 0.00051 | refractive index ([2]; 303.2 K): 1.35265 ± 0.00051

O [water]
refractive index ([2]; 293.2 K): 1.33305 ± 0.00049 | refractive index ([2]; 298.2 K): 1.3325 ± 0.00049 | refractive index ([2]; 303.2 K): 1.33195 ± 0.00049
